Results as given in patent US20040192720A1, “Novel heteroaryl alkylamide derivatives useful as bradykinin receptor modulators” (priority 2003, published 2004).

Assays:
[1] = target: T1, human B2 bradykinin receptors (Homo sapiens, UniProt P30411); test: Bradykinin B2 (BK2) Receptor Binding Assay; conditions: CHO-K1 membranes transfected with human B2 receptor, ~0.25 nM [3H]NPC17731, 60 min 25° C.
T1 construct: purchased Receptor Biology, Inc. (Baltimore, Md.); host or cells: CHO-K1 cells transfected with human B2 receptor (membranes)
T1 sequence (P30411 1-391): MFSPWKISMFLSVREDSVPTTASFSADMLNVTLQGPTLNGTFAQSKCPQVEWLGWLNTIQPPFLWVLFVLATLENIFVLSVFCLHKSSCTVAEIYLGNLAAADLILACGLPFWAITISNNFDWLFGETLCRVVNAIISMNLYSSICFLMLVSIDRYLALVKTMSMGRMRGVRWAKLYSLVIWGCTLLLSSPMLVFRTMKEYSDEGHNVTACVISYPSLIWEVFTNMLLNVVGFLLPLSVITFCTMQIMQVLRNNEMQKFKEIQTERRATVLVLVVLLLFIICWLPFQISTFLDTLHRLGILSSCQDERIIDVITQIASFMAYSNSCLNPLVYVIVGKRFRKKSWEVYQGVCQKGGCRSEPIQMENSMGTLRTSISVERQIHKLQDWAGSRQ
Method: Bradykinin B2 (BK2) Receptor Binding Assay
Cell membranes of CHO-K1 cells transfected with human B2 bradykinin receptors (CH)-hB2) were purchased from Receptor Biology, Inc. (Baltimore, Md.). 5.54 mg/mL of membrane protein suspended in 10 mM TRIS-HC pH 7.2, 2 mM EDTA, 10% sucrose.
Incubation for 60 min at 25° C. was performed in a total volume of 1 mL and contained, unless stated differently, 50 mM HEPES, pH 7.2, 5 mM MgCl2, 0.02 mg/mL 1.10-phenathroline (Sigma, P-9375), 0.25 mg/mL pefebloc SC (Boerhringer, 1429876), 30 μg/mL membrane protein and ˜0.25 nM [^3HNPC17731 (NEN, Boston). Samples were harvested on a Brandel Cell Harvester on to Wallac filtermat B sheets (96 sample format), and washed three times with 2 mL cold HEPES-buffer (10 mM, pH 7.5), and dried in a microwave oven. To each sample area 2×40 μL of Betaplate Scint scintillation fluid (LKB) was added and the radioactivity quantified on a LKB (Wallac) 1205 BetaPlate liquid scintillation counter.
The data were used to calculate either the % inhibition compared to control binding (when only a single concentration of test compound was evaluated) or a Ki value (when a range of concentrations were tested). Background was subtracted from mean cpm values and % inhibition was calculated as: [(total dpm-tpst compound dpm)/(total dpm-nonspecific dpm)]×100. Kd and Ki values were calculated using GraphPad PRISM data analysis program.

[2] = test system: kaolin-induced abdominal irritant response; test: Graded Abdominal Irritant Test (GrAIT); type: in vivo; conditions: po; for % Inhibition: 30 minutes before kaolin 100 mg/kg i.p., dose not given; for ED50: read-out: ED50 (μmol/Kg, p.o.)
Method: Graded Abdominal Irritant Test The […] Abdominal Irritant Test (GrAIT) is a modification of the methods described by Koster et al. (Koster R., Anderson M and DeBeer E. J. Fed. Proc. 1959, 18, 412). Prior to the test (30 minutes for oral or subcutaneous administration), each animal was administered a known analgesic, a test compound, or vehicle (0.05N HCl) by one of two routes (oral or subcutaneous). Kaolin (100 mg/kg) was injected intraperitoneally (using a standard 23G needle) at a volume of 10 mL/kg of body weight. Following the administration of the chemical agent, the animals were placed in glass bell jars (approximately 15 cm in diameter with wood chips on the bottom). […] A contraction of the abdominal musculature and an elongation of the body, which extends through to the hindlimbs, characterize this response. The responses were counted during the 15-minute period after the injection of the kaolin. A mechanical counter or a personal computer was used to collect the number of counts per animal, and animals were observed no more than 5 at a time. The mean number of counts (±SEM) for a group of animals receiving a known analgesic or test compound was compared to the mean for the group of animals which received only vehicle pretreatment (Control group). For each dose, % inhibition of the response was calculated. For each test compound, the ED50 value was calculated using a log dose regression analysis program (PharmTools software).

[3] = target: T2, human B2 bradykinin receptors (CHO-hB2 cell membranes) (Homo sapiens, UniProt P30411); test: [35S]GTPγS Binding Assay in CHO-hB2 Cell Membranes; type: biochemical; conditions: bradykinin-stimulated [35S]GTPγS binding; for Functional Activity (% Basal): number in parentheses, concentration not given
T2 construct: purchased Receptor Biology, Inc. (Baltimore, Md.); host or cells: CHO-hB2 cells (membranes)
T2 sequence (P30411 1-391): T1 sequence (P30411 1-391)
Method: [^35S]GTPγS Binding Assay in CHO-hB2Cell Membranes
CHO-hB2 cell membranes were purchased from Receptor Biology, Inc. (Baltimore, Md.). 10 mg/mL of membrane protein was suspended in 10 mM TRIS-HC pH 7.2, 2 mM EDTA, 10% sucrose.
Membranes were added into 15 mL ice cold binding assay buffer. The assay buffer contained 50 mM HEPES, pH 7.6, 5 mM MgCl2, 100 mM NaCl, 1 mM DTT and 1 mM EDTA. The membrane suspension was homogenized twice with a Polytron and centrifuged at 3000 rpm for 10 min. The supernatant was then centrifuged at 18,000 rpm for 20 min. The pellet was saved in a tube and resuspended.
The pellet membranes (40 μg/mL) were preincubated with SPA (scintillation proximity assay) beads (20 mg/mL) at 25 C. ° for 45 min in the assay buffer. The SPA beads (5 mg/mL) coupled with membranes (10 μg/mL) were then incubated with 0.5 nM [^35S]GTPγS in the same HEPES buffer containing 50 μM GDP in total volume of 200 μL. Bradykinin was used to stimulate [^35S]GTPγS binding. Varying concentrations of drugs were incubated with bradykinin to inhibit bradykinin-stimulated [^35S]GTPγS binding. The basal binding was tested in the absence of bradykinin and no specific binding was tested in the present 10 μM unlabeled GTPγS. The radioactivity was quantified on a Packard Top Count, and calculated.
% of Basal=(stimulated binding−non specific binding)/(basal binding−non specific binding)×100.

Molecule: Cc1ccc2cccc(OCc3c(Cl)ccc(NC(=O)Cc4ccc(C(=O)c5ccc(C#N)nc5)n4C)c3Cl)c2n1 [Compound 14]
- Ki [1]: 6.76 µM

Molecule: Cc1ccc2cccc(OCc3c(C)ccc(N4CCC[C@H]4CNC(=O)Cc4ccc(C(=O)c5ccc(C#N)cc5)n4C)c3C)c2n1 [Compound 113]
- Ki [1]: 7.9 µM

Molecule: Cc1ccc2cccc(OCc3c(Cl)ccc(N(C)C(=O)CCc4ccc(C(=O)c5cnccc5Cl)n4C)c3Cl)c2n1 [Compound 89, 3-[5-(4-Chloro-pyridine-3-carbonyl)-1-methyl-1H-pyrrol-2-yl]-N-[2,4-dichloro-3-(2-methyl-quinolin-8-yloxymethyl)-phenyl]-N-methyl-propionamide]
- % Inhibition [2]: 98%
- ED50 [2]: 22.5 µmol/kg
- Functional Activity (word result) [3]: Antagonist
- Functional Activity (% Basal) [3]: 51 % Basal

Molecule: Cc1ccc2cccc(OCc3c(Cl)ccc(NC(=O)Cc4ccc(C(=O)c5ccc(C#N)cc5)n4C)c3Cl)c2n1 [Compound 15]
- Ki [1]: 6.17 µM
- Functional Activity (word result) [3]: Weak antagonist

Molecule: Cc1ccc2cccc(OCc3c(C)ccc(N(C)C(=O)Cc4ccc(C(=O)c5ccccc5)s4)c3C)c2n1 [Compound 108, 2-(5-Benzoyl-thiophen-2-yl)-N-[2,4-dimethyl-3-(2-methyl-quinolin-8-yloxymethyl)-phenyl]-N-methyl-acetamide]
- Ki [1]: 0.09 µM

Molecule: Cc1ccc2cccc(OCc3c(C)ccc(N(C)C(=O)Cc4ccc(C(=O)c5cnccc5C#N)n4C)c3C)c2n1 [Compound 78, 2-[5-(4-Cyano-pyridine-3-carbonyl)-1-methyl-1H-pyrrol-2-yl]-N-[2,4-dimethyl-3-(2-methyl-quinolin-8-yloxymethyl)-phenyl]-N-methyl-acetamide]
- % Inhibition [2]: 82%
- ED50 [2]: 114 µmol/kg
- Functional Activity (word result) [3]: Antagonist
- Functional Activity (% Basal) [3]: 83 % Basal

Molecule: Cc1ccc2cccc(OCc3c(C)ccc(N4CCC[C@H]4CNC(=O)CCc4ccc(C(=O)c5ccc(C#N)cc5)n4C)c3C)c2n1 [Compound 114]
- Ki [1]: 0.545 µM

Molecule: Cc1ccc2cccc(OCc3c(C)ccc(N(C)C(=O)Cc4ccc(C(=O)c5cnccc5Cl)n4C)c3C)c2n1 [Compound 77, 2-[5-(4-Chloro-pyridine-3-carbonyl)-1-methyl-1H-pyrrol-2-yl]-N-[2,4-dimethyl-3-(2-methyl-quinolin-8-yloxymethyl)-phenyl]-N-methyl-acetamide]
- % Inhibition [2]: 70%
- ED50 [2]: 80.9 µmol/kg
- Functional Activity (word result) [3]: Antagonist
- Functional Activity (% Basal) [3]: 62 % Basal

Molecule: Cc1ccc2cccc(OCc3c(Cl)ccc(N(C)C(=O)Cc4ccc(C(=O)CN5CCC(c6ccccc6)CC5)n4C)c3Cl)c2n1 [Compound 58, N-[2,4-Dichloro-3-(2-methyl-quinolin-8-yloxymethyl)-phenyl]-N-methyl-2-{1-methyl-5-[2-(4-phenyl-piperidin-1-yl)-acetyl]-1H-pyrrol-2-yl}-acetamide]
- Functional Activity (word result) [3]: No effect
- Functional Activity (% Basal) [3]: 1 % Basal

Molecule: CC(=O)Nc1ccc(C(=O)c2ccc(CC(=O)N(C)c3ccc(Cl)c(COc4cccc5ccc(C)nc45)c3Cl)n2C)cc1 [Compound 74, 2-[5-(4-Acetylamino-benzoyl)-1-methyl-1H-pyrrol-2-yl]-N-[2,4-dichloro-3-(2-methyl-quinolin-8-yloxymethyl)-phenyl]-N-methyl-acetamide]
- Functional Activity (word result) [3]: Antagonist

Molecule: Cc1ccc2cccc(OCc3c(C)ccc(N(C)C(=O)Cc4ccc(C(=O)c5ccc(C#N)cc5)n4C)c3C)c2n1 [Compound 79, 2-[5-(4-Cyano-benzoyl)-1-methyl-1H-pyrrol-2-yl]-N-[2,4-dimethyl-3-(2-methyl-quinolin-8-yloxymethyl)-phenyl]-N-methyl-acetamide]
- Functional Activity (word result) [3]: Antagonist
- Functional Activity (% Basal) [3]: 100 % Basal

Molecule: N-[2,4-Dimethyl-3-(2-methyl-quinolin-8-yloxymethyl)-phenyl]-3-[5-(4-methoxy-benzoyl)-1-methyl-1H-pyrrol-2-yl]-N-methyl-propionamide [Compound 106]
- Ki [1]: 0.375 µM
